Experimental data: US8877770B2, “Polymorph of rifaximin and process for the preparation thereof” (Clarochem Ireland Limited, priority 2011, dated 2014)
Entries after “also recorded” stand apart in the source; their conditions may differ.

Tests used:
[1] = Stability testing following conditioning in a humid atmosphere (80% RH, 24 hours); type: physicochemical; conditions: 80% relative humidity
Method: Stability testing of the polymorph of Rifaximin following conditioning in a humid atmosphere.
Two samples of the polymorphic form κ of Rifaximin: 63/11A, which was obtained by means of the procedure of example 4, and 69/11B, which was obtained by means of the procedure of example 1, were maintained for 24 hours in an environment of relative humidity equal to 80%. At the end of the conditioning, an increase of approximately 3%, ascribable to the adsorption of water from the environment, was recorded.

[2] = Exposure at room temperature to variable relative humidity for 12 days and to RH 80% for 5 months; type: physicochemical
Excerpt: The polymorph obtained with the procedure described in example 2 was exposed at room temperature to variable relative humidity for a time period of 12 days, and then for a period of 5 months. When the humidity was increased, there were increases in the mass as shown in Table 2 for 12 days and Table 3 for 5 months.

CO[C@H]1/C=C/O[C@@]2(C)Oc3c(C)c(O)c4c(O)c(c5c(nc6cc(C)ccn65)c4c3C2=O)NC(=O)/C(C)=C\C=C\[C@H](C)[C@H](O)[C@@H](C)[C@@H](O)[C@@H](C)[C@H](OC(C)=O)[C@@H]1C [polymorph κ, (2S,16Z,18E,20S,21S,22R,23R,24R,25S,26S,27S,28E)-5,6,21,23,25-pentahydroxy-27-methoxy-2,4,11,16,20,22,24,26-octamethyl-2,7-(epoxypentadeca-[1,11,13]-trienimmino)-benzofuro-[4,5-e]-pirido-[1,2-α]-benzimidazol-1,15(2H)-dione,25-acetate]
XRPD pattern pre/post-conditioning [1]: substantially identical to one another; also recorded: without registering significant changes in the XRPD pattern | increase of mass of the sample (adsorption of water) [1]: about 3% | increase of mass of the sample (adsorption of water) ([1]; listed as 63/11A): approximately 3% | increase of mass of the sample (adsorption of water) ([1]; listed as 69/11B): approximately 3% | % water after exposure to 80% humidity (RH 80%) ([2]; 1 month): 4.38% | % water after exposure to 80% humidity (RH 80%) ([2]; 2 months): 4.45% | % water after exposure to 80% humidity (RH 80%) ([2]; 5 months): 4.55% | value at which the increase of mass becomes stable ([2]; 80% humidity, stable after 4 days, unchanged after 5 months): approximately 4.5% | % water after exposure to 80% humidity (RH 80%) ([2]; 4 days): 4.38% | % water after exposure to 80% humidity (RH 80%) ([2]; 7 days): 4.44% | % water after exposure to 80% humidity (RH 80%) ([2]; 14 days): 4.37% | % water following exposure to 80% and 45% humidity ([2]; RH 80% 4 days, total days 4): 4.66% | DRX pattern after conditioning ([2]; RH 80%, 5 months): correspond to that one shown in FIG. 1 | nature of the water adsorption process ([2]; cycling between RH 80% and RH 45%, 12 days): superficial and reversible | % water after exposure to 80% humidity (RH 80%) ([2]; initial): 1.85% | % water following exposure to 80% and 45% humidity ([2]; initial, total days 0): 1.85% | maximum adsorption ([2]; prolonged exposure to relative humidity of 80%): 4.5% | % water following exposure to 80% and 45% humidity ([2]; then RH 45% 1 day, total days 12): 3.43% | % water following exposure to 80% and 45% humidity ([2]; then RH 45% 3 days, total days 7): 3.40% | % water following exposure to 80% and 45% humidity ([2]; then RH 80% 4 days, total days 11): 4.52%
